Laboratory results as given in patent US10556888B2, “Pyrazole compounds or salts thereof, preparation methods therefor, herbicidal compositions and use thereof” (QINGDAO KINGAGROOT CHEMICAL COMPOUNDS CO., LTD, priority 2015, dated 2020).

Tests used:
[1] = tested on: main crop (wheat, corn, rice, soybean, cotton, oilseed, millet and sorghum); experiment: Post-emergence test experiment, main crops (Table 2); assay type: in vivo; set-up: key: Level 10: completely dead; Level 9: above 90% growth inhibition rate; Level 8: above 80% growth inhibition rate; Level 7: above 70% growth inhibition rate; Level 6: above 60% growth inhibition rate; Level 5: above 50% growth inhibition rate; Level 4: above 30% growth inhibition rate; Level 3: above 20% growth inhibition rate; Level 2: above 10% growth inhibition rate; Level 1: above 1-10% growth inhibition rate; Level 0: no effect; conditions: 30 g/ha, 3 weeks after spraying, greenhouse
Procedure, shortened: (§1)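 Weed and crop seeds (wheat, corn, rice, soybean, cotton, oilseed, millet, sorghum) grown in soil in greenhouse; sprayed at 2-3 leaf stage, 2-3 weeks after sowing, with compound in acetone/Tween 80/water. Effects assessed after 3 weeks further greenhouse culture.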

[2] = tested on: Monocotyledonous and dicotyledonous weed; experiment: Post-emergence test experiment, weed control effect (Table 2); assay type: in vivo; set-up: key to weed control effect, Setaria viridis (level) / weed control effect, Rorippa indica (level) / weed control effect, Abutilon theophrasti (level) / weed control effect, Echinochloa crus-galli (level) / weed control effect, Digitaria sanguinalis (level): Level 10: completely dead; Level 9: above 90% growth inhibition rate; Level 8: above 80% growth inhibition rate; Level 7: above 70% growth inhibition rate; Level 6: above 60% growth inhibition rate; Level 5: above 50% growth inhibition rate; Level 4: above 30% growth inhibition rate; Level 3: above 20% growth inhibition rate; Level 2: above 10% growth inhibition rate; Level 1: above 1-10% growth inhibition rate; Level 0: no effect; conditions: 30 g/ha, 3 weeks after spraying, greenhouse
Procedure, shortened: as §1

Structure (SMILES)	effect on crop, corn (level) [1]	effect on crop, rice (level) [1]	effect on crop, wheat (level) [1]	weed control effect, Abutilon theophrasti (level) [2]	weed control effect, Bidens pilosa (level) [2]	weed control effect, Digitaria sanguinalis (level) [2]	weed control effect, Echinochloa crus-galli (level) [2]	weed control effect, Rorippa indica (level) [2]	weed control effect, Setaria viridis (level) [2]
C#CCOCc1c(S(C)(=O)=O)ccc(C(=O)c2cnn(C)c2OC(=O)c2cnn(C)c2OCC)c1Cl [Compound 58]	0	3 (Level 3: above 20% growth inhibition rate)	0	7 (Level 7: above 70% growth inhibition rate)	7 (Level 7: above 70% growth inhibition rate)	7 (Level 7: above 70% growth inhibition rate)	10	10	9 (Level 9: above 90% growth inhibition rate)
CCOCCOCc1c(S(C)(=O)=O)ccc(C(=O)c2cnn(C)c2OC(=O)c2cnn(C)c2OCC)c1Cl [Compound 59]	0	3 (Level 3: above 20% growth inhibition rate)	0	7 (Level 7: above 70% growth inhibition rate)	7 (Level 7: above 70% growth inhibition rate)	7 (Level 7: above 70% growth inhibition rate)	8 (Level 8: above 80% growth inhibition rate)	10	6 (Level 6: above 60% growth inhibition rate)
C#CCOCc1c(S(C)(=O)=O)ccc(C(=O)c2cnn(C)c2OC(=O)c2cnn(C)c2)c1Cl [Compound 61]	0	3 (Level 3: above 20% growth inhibition rate)	0	7 (Level 7: above 70% growth inhibition rate)	7 (Level 7: above 70% growth inhibition rate)	7 (Level 7: above 70% growth inhibition rate)	10	10	5 (Level 5: above 50% growth inhibition rate)
COCCCOCc1c(S(C)(=O)=O)ccc(C(=O)c2cnn(C)c2OC(=O)c2cnn(C)c2)c1Cl [Compound 62]	0	3 (Level 3: above 20% growth inhibition rate)	0	7 (Level 7: above 70% growth inhibition rate)	7 (Level 7: above 70% growth inhibition rate)	7 (Level 7: above 70% growth inhibition rate)	10	10	7 (Level 7: above 70% growth inhibition rate)
Cc1nn(C)c(OC(=O)c2cnn(C)c2)c1C(=O)c1ccc(S(C)(=O)=O)c(COCC(F)(F)F)c1Cl [Compound 63]	1 (Level 1: above 1-10% growth inhibition rate)	6 (Level 6: above 60% growth inhibition rate)	0	7 (Level 7: above 70% growth inhibition rate)	7 (Level 7: above 70% growth inhibition rate)	10	10	10	10
Cc1nn(C)c(OC(=O)c2cnn(C)c2)c1C(=O)c1ccc(S(C)(=O)=O)c(COCC(F)F)c1Cl [Compound 64]	2 (Level 2: above 10% growth inhibition rate)	3 (Level 3: above 20% growth inhibition rate)	0	5 (Level 5: above 50% growth inhibition rate)	5 (Level 5: above 50% growth inhibition rate)	9 (Level 9: above 90% growth inhibition rate)	10	10	10
Cc1nn(C)c(OC(=O)c2cnn(C)c2)c1C(=O)c1ccc(S(C)(=O)=O)c(COCC(F)(F)C(F)F)c1Cl [Compound 65]	0	3 (Level 3: above 20% growth inhibition rate)	0	6 (Level 6: above 60% growth inhibition rate)	7 (Level 7: above 70% growth inhibition rate)	7 (Level 7: above 70% growth inhibition rate)	10	10	6 (Level 6: above 60% growth inhibition rate)
Cn1cc(C(=O)Oc2c(C(=O)c3ccc(S(C)(=O)=O)c(COCC(F)(F)F)c3Cl)cnn2C)cn1 [Compound 67]	1 (Level 1: above 1-10% growth inhibition rate)	3 (Level 3: above 20% growth inhibition rate)	0	7 (Level 7: above 70% growth inhibition rate)	7 (Level 7: above 70% growth inhibition rate)	7 (Level 7: above 70% growth inhibition rate)	10	10	9 (Level 9: above 90% growth inhibition rate)
C#CCOCc1c(S(C)(=O)=O)ccc(C(=O)c2c(C)nn(C)c2OC(=O)c2cnn(C)c2)c1Cl [Compound 69]	0	3 (Level 3: above 20% growth inhibition rate)	0	7 (Level 7: above 70% growth inhibition rate)	7 (Level 7: above 70% growth inhibition rate)	6 (Level 6: above 60% growth inhibition rate)	10	10	6 (Level 6: above 60% growth inhibition rate)
CCOCc1c(S(C)(=O)=O)ccc(C(=O)c2c(C3CC3)nn(C)c2OC(=O)c2cnn(C)c2)c1Cl [Compound 70]	3 (Level 3: above 20% growth inhibition rate)	3 (Level 3: above 20% growth inhibition rate)	0	7 (Level 7: above 70% growth inhibition rate)	7 (Level 7: above 70% growth inhibition rate)	10	10	10	10
Cn1cc(C(=O)Oc2c(C(=O)c3ccc(S(C)(=O)=O)c(COCC(F)(F)C(F)F)c3Cl)c(C3CC3)nn2C)cn1 [Compound 71]	0	3 (Level 3: above 20% growth inhibition rate)	0	6 (Level 6: above 60% growth inhibition rate)	8 (Level 8: above 80% growth inhibition rate)	7 (Level 7: above 70% growth inhibition rate)	8 (Level 8: above 80% growth inhibition rate)	10	5 (Level 5: above 50% growth inhibition rate)
COCc1c(S(C)(=O)=O)ccc(C(=O)c2c(C3CC3)nn(C)c2OC(=O)c2cnn(C)c2)c1Cl [Compound 72]	2 (Level 2: above 10% growth inhibition rate)	3 (Level 3: above 20% growth inhibition rate)	0	7 (Level 7: above 70% growth inhibition rate)	7 (Level 7: above 70% growth inhibition rate)	8 (Level 8: above 80% growth inhibition rate)	10	10	8 (Level 8: above 80% growth inhibition rate)
CCOCc1c(S(C)(=O)=O)ccc(C(=O)c2c(C)nn(C)c2OC(=O)c2cnn(C)c2)c1Cl [Compound 73]	0	3 (Level 3: above 20% growth inhibition rate)	0	7 (Level 7: above 70% growth inhibition rate)	7 (Level 7: above 70% growth inhibition rate)	9 (Level 9: above 90% growth inhibition rate)	10	10	9 (Level 9: above 90% growth inhibition rate)
